For assay [1], the target named is Serine/threonine-protein kinase MARK2 (Homo sapiens) (UniProt Q7KZI7). Briefly: Selectivity interaction (Kinase panel (KiNativ target engagement assay in Jurkat cells)) EUB0001635a MARK2. The format is cell-based. Particulars: Selectivity number of off-targets 0.0, Selectivity number of targets 233.0, Source Knowledge https://www.sciencedirect.com/science/article/pii/S2451945619300674?via%3Dihub, at 1 µM.

Assay [2] addresses T1, Dual specificity tyrosine-phosphorylation-regulated kinase 2 (Homo sapiens) (UniProt Q92630).
T1 sequence (whole entry): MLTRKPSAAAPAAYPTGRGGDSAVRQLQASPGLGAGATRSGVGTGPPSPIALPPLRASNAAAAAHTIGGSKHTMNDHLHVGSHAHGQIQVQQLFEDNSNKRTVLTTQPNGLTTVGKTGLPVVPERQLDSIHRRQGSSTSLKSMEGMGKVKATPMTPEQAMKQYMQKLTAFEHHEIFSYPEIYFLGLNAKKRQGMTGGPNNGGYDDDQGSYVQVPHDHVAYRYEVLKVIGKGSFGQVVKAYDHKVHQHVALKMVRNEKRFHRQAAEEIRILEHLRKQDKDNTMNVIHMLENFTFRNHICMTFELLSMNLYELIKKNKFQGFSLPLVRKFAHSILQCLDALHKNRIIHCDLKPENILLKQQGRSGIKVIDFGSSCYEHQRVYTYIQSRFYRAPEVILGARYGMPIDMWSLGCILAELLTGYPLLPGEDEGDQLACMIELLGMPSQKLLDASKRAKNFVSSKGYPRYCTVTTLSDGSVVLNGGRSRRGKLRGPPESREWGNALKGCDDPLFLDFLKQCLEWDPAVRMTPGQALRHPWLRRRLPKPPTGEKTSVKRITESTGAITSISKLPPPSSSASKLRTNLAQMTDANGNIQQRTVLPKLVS
Briefly: Selectivity interaction (KinomeScan (DiscoverX)) EUB0000607a DYRK2. The following applies: at 10 µM.

For assay [3], the target named is T2, Serine/threonine-protein kinase Sgk3 (Homo sapiens) (UniProt Q96BR1).
T2 sequence (whole entry): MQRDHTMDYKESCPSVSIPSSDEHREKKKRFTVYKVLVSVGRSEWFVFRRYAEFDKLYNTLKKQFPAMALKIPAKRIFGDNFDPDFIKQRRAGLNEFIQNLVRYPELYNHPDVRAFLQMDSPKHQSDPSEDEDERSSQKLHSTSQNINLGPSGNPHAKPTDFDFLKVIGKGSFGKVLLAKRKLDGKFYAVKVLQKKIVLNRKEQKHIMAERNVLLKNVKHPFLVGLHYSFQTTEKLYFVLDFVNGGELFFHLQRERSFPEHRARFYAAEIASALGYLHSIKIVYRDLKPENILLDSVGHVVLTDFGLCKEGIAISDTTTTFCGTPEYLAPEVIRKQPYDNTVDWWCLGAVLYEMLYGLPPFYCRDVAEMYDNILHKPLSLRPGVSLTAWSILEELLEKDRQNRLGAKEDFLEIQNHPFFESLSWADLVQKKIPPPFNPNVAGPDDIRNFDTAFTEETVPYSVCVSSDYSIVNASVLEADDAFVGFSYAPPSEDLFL
Briefly: Selectivity interaction (ActivX KiNativ screen (ex vivo kinase selectivity in human PBMCs)) EUB0001619a SGK3. The format is cell-based. Particulars: PBMC, at 1 µM.

The target in assay [4] is Serine/threonine-protein kinase MARK1 (Homo sapiens) (UniProt Q9P0L2). Nature of the assay: Selectivity interaction (KinomeScan (DiscoverX)) EUB0001619a MARK1. The following applies: at 1 µM.
For assay [5], the target named is Myosin light chain kinase, smooth muscle (Homo sapiens, UniProt Q15746). Briefly: Selectivity interaction (Kinase panel (Invitrogen)) EUB0000639a MYLK. Particulars: at 200 nM.
Assay [6] has as its target Cyclin-dependent kinase 16 (Homo sapiens) (UniProt Q00536). Nature of the assay: Selectivity interaction (ActivX KiNativ screen (kinase selectivity in THP-1 cell lysates)) EUB0000639a CDK16. The following applies: lysate, at 0.04 µM. The format is subcellular.
Assay [7] addresses Casein kinase I isoform epsilon (Homo sapiens, UniProt P49674). Nature of the assay: Selectivity interaction (ProQinase) EUB0000171b CSNK1E.
The subject of assay [8] is Epidermal growth factor receptor (Homo sapiens), P00533 [UNDEFINED MUTATION]. Briefly: Selectivity interaction (ProQinase) EUB0000171b EGFR. The following applies: at 1 µM.
The target in assay [9] is AP2-associated protein kinase 1 (Homo sapiens, UniProt Q2M2I8). Nature of the assay: Selectivity interaction (Kinase panel (DSF assay)) EUB0001489b AAK1. On the technique in general: DSF heats the sample and reads unfolding from a dye or from intrinsic fluorescence.
Assay [10] addresses 5'-AMP-activated protein kinase catalytic subunit alpha-1 (Homo sapiens, UniProt Q13131). Nature of the assay: Selectivity interaction (KinomeScan (DiscoverX)) EUB0000092b PRKAA1. Particulars: at 10 µM.
A short description of assay [11]: Selectivity interaction (KinomeScan (DiscoverX)) EUB0000092b PKNB. The following applies: at 10 µM.
Assay [12] concerns the target Mitogen-activated protein kinase kinase kinase 11 (Homo sapiens) (UniProt Q16584). Briefly: Selectivity interaction (KinomeScan (DiscoverX)) EUB0000092b MAP3K11. The following applies: at 10 µM.
For assay [13], the target named is T3, Serine/threonine-protein kinase DCLK1 (Homo sapiens) (UniProt O15075).
T3 sequence (whole entry): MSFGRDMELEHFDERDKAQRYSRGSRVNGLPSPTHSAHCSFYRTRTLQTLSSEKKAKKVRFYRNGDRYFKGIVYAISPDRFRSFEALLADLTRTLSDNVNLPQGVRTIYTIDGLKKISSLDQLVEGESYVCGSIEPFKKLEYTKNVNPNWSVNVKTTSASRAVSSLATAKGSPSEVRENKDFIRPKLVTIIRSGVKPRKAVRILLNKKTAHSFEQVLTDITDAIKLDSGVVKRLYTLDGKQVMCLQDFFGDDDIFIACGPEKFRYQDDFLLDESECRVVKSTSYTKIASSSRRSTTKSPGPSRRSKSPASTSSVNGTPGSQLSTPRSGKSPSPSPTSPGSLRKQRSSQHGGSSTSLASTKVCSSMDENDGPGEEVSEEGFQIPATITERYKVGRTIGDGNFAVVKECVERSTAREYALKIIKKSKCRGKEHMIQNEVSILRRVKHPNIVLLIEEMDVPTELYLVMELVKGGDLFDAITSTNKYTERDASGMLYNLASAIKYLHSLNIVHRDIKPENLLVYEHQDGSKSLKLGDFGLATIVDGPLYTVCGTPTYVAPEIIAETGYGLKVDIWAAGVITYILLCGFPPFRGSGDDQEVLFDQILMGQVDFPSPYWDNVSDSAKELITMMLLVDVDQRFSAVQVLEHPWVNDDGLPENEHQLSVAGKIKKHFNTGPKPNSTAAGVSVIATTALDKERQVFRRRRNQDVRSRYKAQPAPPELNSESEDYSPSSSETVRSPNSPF
Briefly: Selectivity interaction (Kinase panel (DSF assay)) EUB0001559a DCLK1.

Assay [14] has as its target Protein kinase C beta type (Homo sapiens, UniProt P05771). Nature of the assay: Selectivity interaction (Upstate Kinase Profiler service (Millipore)) EUB0000056c PRKCB. Particulars: at 1 µM.

Data on nine compounds can be found in ChEMBL document CHEMBL5465560, “Selectivity Literature for EUbOPEN Chemogenomic Library” (2024).

Chain of Casein kinase I isoform epsilon (P49674 whole entry, looked up, canonical isoform): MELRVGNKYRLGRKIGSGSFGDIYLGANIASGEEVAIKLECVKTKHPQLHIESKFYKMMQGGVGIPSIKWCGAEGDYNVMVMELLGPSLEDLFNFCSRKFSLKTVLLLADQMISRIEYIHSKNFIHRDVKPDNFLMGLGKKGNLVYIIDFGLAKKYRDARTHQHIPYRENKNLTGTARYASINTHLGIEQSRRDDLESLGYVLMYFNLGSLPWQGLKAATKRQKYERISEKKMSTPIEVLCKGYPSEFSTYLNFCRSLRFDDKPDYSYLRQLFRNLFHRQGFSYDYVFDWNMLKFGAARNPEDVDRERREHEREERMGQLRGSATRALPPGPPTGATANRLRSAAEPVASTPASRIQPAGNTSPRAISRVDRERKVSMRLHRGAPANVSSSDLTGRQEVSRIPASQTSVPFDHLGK
Chain of Serine/threonine-protein kinase MARK2 (Homo sapiens) (Q7KZI7 whole entry): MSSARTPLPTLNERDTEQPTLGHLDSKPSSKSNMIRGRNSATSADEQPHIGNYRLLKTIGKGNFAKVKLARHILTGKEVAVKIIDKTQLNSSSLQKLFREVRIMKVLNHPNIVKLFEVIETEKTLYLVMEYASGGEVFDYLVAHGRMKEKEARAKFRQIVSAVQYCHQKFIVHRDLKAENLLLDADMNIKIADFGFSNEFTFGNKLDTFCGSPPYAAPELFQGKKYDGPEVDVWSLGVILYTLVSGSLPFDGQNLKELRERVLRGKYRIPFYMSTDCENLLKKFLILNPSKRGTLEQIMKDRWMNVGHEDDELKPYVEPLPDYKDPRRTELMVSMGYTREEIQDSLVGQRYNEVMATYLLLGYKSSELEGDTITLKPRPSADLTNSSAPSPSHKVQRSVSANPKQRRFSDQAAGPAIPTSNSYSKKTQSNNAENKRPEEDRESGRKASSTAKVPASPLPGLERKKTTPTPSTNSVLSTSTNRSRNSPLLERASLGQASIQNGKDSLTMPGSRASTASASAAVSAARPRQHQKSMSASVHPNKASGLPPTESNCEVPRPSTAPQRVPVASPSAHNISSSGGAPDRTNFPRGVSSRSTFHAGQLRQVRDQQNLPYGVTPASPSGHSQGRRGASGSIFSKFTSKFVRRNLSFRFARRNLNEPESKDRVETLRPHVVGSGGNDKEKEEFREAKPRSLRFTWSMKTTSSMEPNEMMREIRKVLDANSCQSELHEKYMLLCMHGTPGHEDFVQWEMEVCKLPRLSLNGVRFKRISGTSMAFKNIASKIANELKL
Chain of Protein kinase C beta type (P05771 2-671 limits assumed): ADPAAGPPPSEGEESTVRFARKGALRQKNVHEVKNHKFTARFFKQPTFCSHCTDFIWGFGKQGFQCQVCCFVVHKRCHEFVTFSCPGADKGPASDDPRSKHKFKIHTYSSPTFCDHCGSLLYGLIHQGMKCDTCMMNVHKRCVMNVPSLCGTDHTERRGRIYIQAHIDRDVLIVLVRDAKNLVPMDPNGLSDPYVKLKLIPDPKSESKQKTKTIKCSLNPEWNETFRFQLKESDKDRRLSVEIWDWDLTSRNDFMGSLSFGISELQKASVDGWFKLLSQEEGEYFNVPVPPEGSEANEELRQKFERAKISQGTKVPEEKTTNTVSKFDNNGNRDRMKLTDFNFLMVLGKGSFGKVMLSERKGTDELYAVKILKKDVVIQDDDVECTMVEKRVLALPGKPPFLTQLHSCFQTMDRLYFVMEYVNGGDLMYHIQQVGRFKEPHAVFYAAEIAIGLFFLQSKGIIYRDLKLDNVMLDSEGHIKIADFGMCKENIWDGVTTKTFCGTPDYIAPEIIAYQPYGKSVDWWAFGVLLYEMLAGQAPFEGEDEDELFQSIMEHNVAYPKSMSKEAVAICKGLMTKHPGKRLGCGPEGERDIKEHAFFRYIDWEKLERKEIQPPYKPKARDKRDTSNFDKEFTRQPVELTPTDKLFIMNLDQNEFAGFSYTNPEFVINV
Chain of Myosin light chain kinase, smooth muscle (Q15746 whole entry): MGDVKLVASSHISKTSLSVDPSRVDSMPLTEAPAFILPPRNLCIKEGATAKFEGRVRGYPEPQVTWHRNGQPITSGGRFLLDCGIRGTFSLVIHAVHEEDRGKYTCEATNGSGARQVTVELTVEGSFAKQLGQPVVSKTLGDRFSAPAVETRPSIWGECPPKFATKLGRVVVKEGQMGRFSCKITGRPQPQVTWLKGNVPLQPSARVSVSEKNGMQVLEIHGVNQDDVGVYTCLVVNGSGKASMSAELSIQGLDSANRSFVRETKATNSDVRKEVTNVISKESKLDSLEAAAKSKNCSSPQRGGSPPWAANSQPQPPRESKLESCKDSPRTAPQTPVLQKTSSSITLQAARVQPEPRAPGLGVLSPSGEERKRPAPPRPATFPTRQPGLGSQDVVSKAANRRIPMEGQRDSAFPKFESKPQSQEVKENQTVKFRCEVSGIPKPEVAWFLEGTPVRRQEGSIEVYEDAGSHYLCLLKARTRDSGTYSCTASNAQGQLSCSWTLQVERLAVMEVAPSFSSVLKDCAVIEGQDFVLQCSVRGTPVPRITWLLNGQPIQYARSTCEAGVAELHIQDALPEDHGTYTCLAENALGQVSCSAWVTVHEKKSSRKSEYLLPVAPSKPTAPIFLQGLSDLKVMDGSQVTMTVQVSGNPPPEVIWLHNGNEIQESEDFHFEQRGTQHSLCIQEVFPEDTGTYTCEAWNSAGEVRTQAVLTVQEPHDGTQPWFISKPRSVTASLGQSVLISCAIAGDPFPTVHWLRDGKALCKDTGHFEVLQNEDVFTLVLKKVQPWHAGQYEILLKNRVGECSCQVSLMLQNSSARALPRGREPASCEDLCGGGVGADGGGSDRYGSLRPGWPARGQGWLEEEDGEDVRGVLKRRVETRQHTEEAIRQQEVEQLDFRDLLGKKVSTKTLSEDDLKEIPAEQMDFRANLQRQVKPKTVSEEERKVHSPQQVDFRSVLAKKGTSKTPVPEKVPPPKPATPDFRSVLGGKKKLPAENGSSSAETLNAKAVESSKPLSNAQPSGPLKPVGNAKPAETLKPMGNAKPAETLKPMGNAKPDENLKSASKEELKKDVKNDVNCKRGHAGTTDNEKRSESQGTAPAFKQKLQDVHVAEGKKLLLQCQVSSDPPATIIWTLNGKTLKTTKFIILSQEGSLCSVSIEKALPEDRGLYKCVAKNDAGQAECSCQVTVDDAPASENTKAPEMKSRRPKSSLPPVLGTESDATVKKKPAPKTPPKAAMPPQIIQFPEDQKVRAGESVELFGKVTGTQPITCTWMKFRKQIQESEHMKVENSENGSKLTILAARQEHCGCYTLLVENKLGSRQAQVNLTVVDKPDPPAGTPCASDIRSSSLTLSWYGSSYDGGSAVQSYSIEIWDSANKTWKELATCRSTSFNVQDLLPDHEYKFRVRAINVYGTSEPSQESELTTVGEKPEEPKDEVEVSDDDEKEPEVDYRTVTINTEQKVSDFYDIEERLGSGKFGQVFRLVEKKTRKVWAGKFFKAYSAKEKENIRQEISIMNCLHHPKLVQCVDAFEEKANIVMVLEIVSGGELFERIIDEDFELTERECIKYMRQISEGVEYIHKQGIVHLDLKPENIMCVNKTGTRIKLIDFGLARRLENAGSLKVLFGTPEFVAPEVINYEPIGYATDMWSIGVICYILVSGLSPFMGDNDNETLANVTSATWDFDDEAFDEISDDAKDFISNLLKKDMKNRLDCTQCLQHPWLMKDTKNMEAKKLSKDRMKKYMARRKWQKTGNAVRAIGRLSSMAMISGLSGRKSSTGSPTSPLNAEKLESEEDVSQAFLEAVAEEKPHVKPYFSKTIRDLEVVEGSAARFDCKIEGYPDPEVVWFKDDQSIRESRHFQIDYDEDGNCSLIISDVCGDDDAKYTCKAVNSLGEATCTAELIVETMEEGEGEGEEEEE
Chain of 5'-AMP-activated protein kinase catalytic subunit alpha-1 (Q13131 whole entry, looked up): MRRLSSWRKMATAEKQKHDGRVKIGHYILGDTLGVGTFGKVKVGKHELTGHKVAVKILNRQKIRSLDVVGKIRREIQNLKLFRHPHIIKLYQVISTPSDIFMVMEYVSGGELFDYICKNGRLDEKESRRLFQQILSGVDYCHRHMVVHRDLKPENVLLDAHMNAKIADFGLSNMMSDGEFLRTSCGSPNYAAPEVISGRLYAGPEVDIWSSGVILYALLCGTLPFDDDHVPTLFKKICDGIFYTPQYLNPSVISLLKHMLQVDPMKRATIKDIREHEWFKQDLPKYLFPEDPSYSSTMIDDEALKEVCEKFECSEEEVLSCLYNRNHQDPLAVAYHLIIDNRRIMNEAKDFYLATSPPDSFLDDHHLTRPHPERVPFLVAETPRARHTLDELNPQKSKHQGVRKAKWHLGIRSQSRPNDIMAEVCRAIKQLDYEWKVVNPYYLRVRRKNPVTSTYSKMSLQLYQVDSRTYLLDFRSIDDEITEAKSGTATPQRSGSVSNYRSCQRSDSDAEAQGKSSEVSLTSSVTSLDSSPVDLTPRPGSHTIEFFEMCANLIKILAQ
Chain of Cyclin-dependent kinase 16 (Homo sapiens) (Q00536 whole entry, canonical isoform): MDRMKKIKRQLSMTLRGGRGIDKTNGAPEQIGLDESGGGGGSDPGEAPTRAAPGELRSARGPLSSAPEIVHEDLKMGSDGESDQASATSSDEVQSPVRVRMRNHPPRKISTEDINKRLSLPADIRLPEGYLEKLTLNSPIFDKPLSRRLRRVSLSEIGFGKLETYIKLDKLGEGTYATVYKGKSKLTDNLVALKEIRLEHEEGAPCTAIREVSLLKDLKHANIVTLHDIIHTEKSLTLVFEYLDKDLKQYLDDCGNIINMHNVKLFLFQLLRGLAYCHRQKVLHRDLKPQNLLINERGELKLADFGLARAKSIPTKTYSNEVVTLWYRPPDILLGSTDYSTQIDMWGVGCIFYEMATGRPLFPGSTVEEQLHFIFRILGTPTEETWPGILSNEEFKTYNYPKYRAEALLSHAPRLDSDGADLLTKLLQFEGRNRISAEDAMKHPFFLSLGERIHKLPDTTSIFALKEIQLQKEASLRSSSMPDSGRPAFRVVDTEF

With `C=CC(=O)Nc1ccc(C(=O)Nc2[nH]nc3c2CN(C(=O)N[C@H](CN(C)C)c2ccccc2)C3(C)C)cc1`, the % of engagement in [1] is -1.9%.

On to `CNC(=O)Nc1ccc(-c2nc(N3CC4CCC(C3)O4)c3cnn(C4CCC5(CC4)OCCO5)c3n2)cc1`, for which, in assay [2], the % of control turned out to be 90%.

`N#Cc1cccc(-c2c[nH]c3ncnc(N4CCOCC4)c23)c1`: the % of inhibition in assay [3] is -1%. The % of control in assay [4] came out at 91%.

As for `CC[C@@H]1[C@H](F)C(=O)N[C@@H]1COc1nccc2cc(C(N)=O)c(OC)cc12` [ZIMLOVISERTIB], the % of inhibition in assay [5] was found to be 1%; in [6], 0.5%.

Consider `C=CC(=O)Nc1cccc(C(=O)Nc2ccc(Nc3cc(-c4[nH]c(SC)nc4C)ccn3)cc2)c1`, for which the % of control in assay [7] (at 1 µM) was determined as 57%; in assay [7] (at 5 µM), 21%; in assay [8], 101%.

In the case of `CN1CCN(C(=O)c2ccc3cc2OCCOCCNc2ccn4ncc-3c4n2)CC1`, in assay [9], the dTM was 4.2 K.

Consider `CCC(=O)N1CCN(c2ccc(-n3c(=O)ccc4cnc5ccc(-c6cnc7ccccc7c6)cc5c43)cc2C(F)(F)F)CC1`, for which the % of control in assay [10] was 91%; in [11] it was 64%; in assay [12], 69%.

Turning to `CN(C(=O)c1cnn2cccnc12)c1cc2c(cc1N1CCOCC1)C(=O)N(C[C@@H](F)C(C)(C)O)C2`, in [13], the dTM came to 0.8 K.

As for `Cc1ccc(-c2ccc3c(ccc4sc5c(c43)NC[C@@H](C)NC5=O)n2)cn1`, the % of inhibition in assay [14] is 13%.
